Experimental data reported in patent US20180185510A1, “ANTIBODY DRUG CONJUGATES OF KINESIN SPINDEL PROTEIN (KSP) INHIBITORS WITH ANTI-B7H3-ANTIBODIES” (BAYER PHARMA AKTIENGESELLSCHAFT, priority 2015, published 2018).

How the values were obtained:
[1] = system: NCI-H292: human mucoepidermoid lung carcinoma cells; test: MTT assay, cytotoxicity of metabolites, NCI-H292; type: cell-based; conditions: NCI-H292, 96 h, 96 h incubation
Protocol: NCI-H292: human mucoepidermoid lung carcinoma cells, ATCC-CRL-1848, standard medium: RPMI 1640 (Biochrom; #FG1215, stab. glutamine)+10% FCS (Biochrom; #S0415).
(§1) The cells were cultivated according to the standard method using the growth media listed under C-1. The test is carried out by detaching the cells with a solution of Accutase in PBS (Biochrom AG #L2143), pelleting, resuspending in culture medium, counting and sowing into a 96-well culture plate with white bottom (Costar #3610) (NCI H292: 2500 cells/well in a total volume of 100 μl). The cells were then incubated in an incubator at 37° C. and 5% carbon dioxide. After 48 h, the medium was replaced. The metabolites in 10 μl of culture medium in concentrations from 10^−5M to 10^−13M were then pipetted to the cells (in triplicate), and the assay was then incubated in an incubator at 37° C. and 5% carbon dioxide. […] To this end, the MTT reagent was incubated with the cells for 4 h, followed by lysis of the cells overnight by addition of the detergent. The dye formed was detected at 570 nm (Infinite M1000 pro, Tecan). The measured data were used to calculate the IC50 of the growth inhibition using the DRC (dose response curve). The proliferation of cells which were not treated with test substance but were otherwise identically treated was defined as the 100% figure.

KPL4 = test: MTT assay, cytotoxicity of metabolites, KPL4; type: cell-based; conditions: KPL4, 96 h, 96 h incubation
Protocol: as §1

[2] = molecular target: T1, human B7H3 (RnDSystems, 2318-B3-050/CF) (human, UniProt Q5ZPR3 29-461); test: ELISA; antibody captured on anti-human IgG Fc, antigen 37 ng/ml, anti-His HRP / Amplex Red
T1 construct: Bought antigen, detected with an anti-His HRP antibody, so a His tag is implied
T1 sequence (looked up): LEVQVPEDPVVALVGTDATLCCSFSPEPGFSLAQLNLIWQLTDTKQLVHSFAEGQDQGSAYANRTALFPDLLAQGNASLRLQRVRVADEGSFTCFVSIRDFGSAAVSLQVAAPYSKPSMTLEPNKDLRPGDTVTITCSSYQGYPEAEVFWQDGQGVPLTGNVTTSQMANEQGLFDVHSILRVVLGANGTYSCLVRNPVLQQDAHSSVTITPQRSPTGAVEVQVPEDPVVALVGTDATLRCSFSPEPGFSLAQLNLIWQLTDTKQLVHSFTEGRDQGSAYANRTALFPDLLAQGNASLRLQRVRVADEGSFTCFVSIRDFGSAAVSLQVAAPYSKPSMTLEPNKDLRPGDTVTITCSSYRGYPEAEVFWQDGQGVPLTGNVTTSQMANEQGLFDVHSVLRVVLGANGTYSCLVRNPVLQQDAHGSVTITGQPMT
Protocol: TPP5706 was synthesized as described above. Binding of TPP5706 to human B7H3 and to human B7H2 and B7H4 was characterized using ELISAs. […] After washing once with PBS, 0.05% Tween, the plate was blocked with 100% Smart Block (Candor) for one hour at 37° C. The antibody to be tested (e.g. TPP5706 or one of its derivatives) was then attached to the plate (2 μg/ml IgG in PBS, 0.05% Tween, 10% Smart Block; 1 hour, room temperature). […] After washing three times, the plate was incubated with Amplex Red for 30 minutes and then read.

Quotient signal (B7)/signal (buffer) [2] | Molecule | IC50 [1] | IC50 (KPL4)
– | CC(C)(C)[C@H](c1cc(-c2cc(F)ccc2F)cn1Cc1ccccc1)N(CC[C@H](N)C(=O)NCCNC(=O)CNC(=O)C(CC(=O)O)SC[C@H](N)C(=O)O)C(=O)CO (stereo partly drawn) [Example M27, 4-[(2-{[2-({(2S)-2-Amino-4-[{(1R)-1-[1-benzyl-4-(2,5-difluorophenyl)-1H-pyrrol-2-yl]-2,2-dimethylpropyl}(glycoloyl)amino]butanoyl}amino)ethyl]amino}-2-oxoethyl)amino]-3-{[(2R)-2-amino-2-carboxyethyl]sulphanyl}-4-oxobutanoic acid-trifluoroacetic acid (1:1)] | 276 nM | –
– | CC(C)(C)[C@H](c1cc(-c2cc(F)ccc2F)cn1Cc1ccccc1)N(CC[C@H](N)C(=O)NCCC(=O)N[C@@H](CCC(=O)O)C(=O)O)C(=O)CO [Example M23, N-{(2S)-2-Amino-4-[{(1R)-1-[1-benzyl-4-(2,5-difluorophenyl)-1H-pyrrol-2-yl]-2,2-dimethylpropyl}(glycoloyl)amino]butanoyl}-beta-alanyl-L-glutamic acid-trifluoroacetic acid (1:1)] | 500 nM | 500 nM
– | CC(C)(C)[C@H](c1cc(-c2cc(F)ccc2F)cn1Cc1ccccc1)N(CC[C@H](N)C(=O)NCCC(=O)N[C@H](CCC(=O)O)C(=O)O)C(=O)CO [Example M24, N-{(2S)-2-Amino-4-[{(1R)-1-[1-benzyl-4-(2,5-difluorophenyl)-1H-pyrrol-2-yl]-2,2-dimethylpropyl}(glycoloyl)amino]butanoyl}-beta-alanyl-D-glutamic acid-trifluoroacetic acid (1:1)] | 167 nM | 500 nM
– | CC(C)(C)[C@H](c1cc(-c2cc(F)ccc2F)cn1Cc1ccccc1)N(CC[C@H](N)C(=O)NCCNC(=O)CNC(=O)C(CC(=O)O)SC[C@H](N)C(=O)O)C(=O)CO (single isomer, unassigned) [Example M15] | 133 nM | 169 nM
51 | TPP-3803 (antibody, human IgG1, kappa, V domains shown, also called anti-B7H3 AK1A) VH: QVKLQQSGAELVKPGASVKLSCKASGYTFTNYDINWVRQRPEQGLEWIGWIFPGDGSTQYNEKFKGKATLTTDTSSSTAYMQLSRLTSEDSAVYFCARQTTATWFAYWGQGTTVTVSS VL: DIELTQSPTTLSVTPGDRVSLSCRASQSISDYLHWYQQKSHESPRLLIKYASQSISGIPSRFSGSGSGSDFTLSINSVEPEDVGVYYCQNGHSFPLTFGAGTKLELKR | – | –
